Source: ChEMBL document CHEMBL4371002 (J Med Chem, 2018)
pEC50, pIC50: −log10 of the molar value.

What was measured:
[1] = target: Tyrosine-protein phosphatase non-receptor type 1 (Homo sapiens, UniProt P18031); type: cell-based, Sf9
[2] = target: T1, 3-oxo-5-alpha-steroid 4-dehydrogenase 1 (Rattus norvegicus, UniProt P24008)
T1 sequence (P24008 whole entry): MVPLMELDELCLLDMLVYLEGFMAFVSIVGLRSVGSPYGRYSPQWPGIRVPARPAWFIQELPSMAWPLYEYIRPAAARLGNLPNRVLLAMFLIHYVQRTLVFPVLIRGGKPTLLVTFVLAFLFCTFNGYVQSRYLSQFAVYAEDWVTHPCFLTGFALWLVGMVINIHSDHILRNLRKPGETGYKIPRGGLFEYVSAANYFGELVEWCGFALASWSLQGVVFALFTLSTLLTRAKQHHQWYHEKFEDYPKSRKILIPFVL

[3] = target: T2, 3-oxo-5-alpha-steroid 4-dehydrogenase 2 (Homo sapiens, UniProt P31213)
T2 sequence (P31213 whole entry): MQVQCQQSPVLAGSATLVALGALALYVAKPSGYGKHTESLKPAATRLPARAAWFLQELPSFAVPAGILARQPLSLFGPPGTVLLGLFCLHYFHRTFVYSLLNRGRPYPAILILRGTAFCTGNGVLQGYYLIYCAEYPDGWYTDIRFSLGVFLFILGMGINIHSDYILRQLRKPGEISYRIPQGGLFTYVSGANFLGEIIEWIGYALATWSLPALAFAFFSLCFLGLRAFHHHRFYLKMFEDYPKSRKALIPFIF

[4] = target: T3, 3-oxo-5-alpha-steroid 4-dehydrogenase 1 (Homo sapiens, UniProt P18405); type: cell-based, HEK293
T3 sequence (P18405 whole entry): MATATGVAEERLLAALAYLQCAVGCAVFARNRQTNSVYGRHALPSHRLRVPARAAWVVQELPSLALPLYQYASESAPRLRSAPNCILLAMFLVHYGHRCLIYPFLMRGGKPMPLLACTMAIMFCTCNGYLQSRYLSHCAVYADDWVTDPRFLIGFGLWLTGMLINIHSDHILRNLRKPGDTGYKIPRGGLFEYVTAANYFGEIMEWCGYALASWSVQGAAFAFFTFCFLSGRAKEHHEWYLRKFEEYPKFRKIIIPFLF

[5] = target: T4, 3-oxo-5-alpha-steroid 4-dehydrogenase 2 (Rattus norvegicus, UniProt P31214)
T4 sequence (P31214 whole entry): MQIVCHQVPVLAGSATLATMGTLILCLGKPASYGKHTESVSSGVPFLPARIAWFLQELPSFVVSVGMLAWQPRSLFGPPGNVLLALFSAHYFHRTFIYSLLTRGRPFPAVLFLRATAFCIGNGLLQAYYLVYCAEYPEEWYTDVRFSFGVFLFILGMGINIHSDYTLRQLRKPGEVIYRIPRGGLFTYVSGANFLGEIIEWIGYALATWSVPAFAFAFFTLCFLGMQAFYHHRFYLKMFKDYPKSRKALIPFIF

[6] = target: T3, 3-oxo-5-alpha-steroid 4-dehydrogenase 1
[7] = target: T2, 3-oxo-5-alpha-steroid 4-dehydrogenase 2; remark: listed apart in the source

Chain of Tyrosine-protein phosphatase non-receptor type 1 (P18031 whole entry): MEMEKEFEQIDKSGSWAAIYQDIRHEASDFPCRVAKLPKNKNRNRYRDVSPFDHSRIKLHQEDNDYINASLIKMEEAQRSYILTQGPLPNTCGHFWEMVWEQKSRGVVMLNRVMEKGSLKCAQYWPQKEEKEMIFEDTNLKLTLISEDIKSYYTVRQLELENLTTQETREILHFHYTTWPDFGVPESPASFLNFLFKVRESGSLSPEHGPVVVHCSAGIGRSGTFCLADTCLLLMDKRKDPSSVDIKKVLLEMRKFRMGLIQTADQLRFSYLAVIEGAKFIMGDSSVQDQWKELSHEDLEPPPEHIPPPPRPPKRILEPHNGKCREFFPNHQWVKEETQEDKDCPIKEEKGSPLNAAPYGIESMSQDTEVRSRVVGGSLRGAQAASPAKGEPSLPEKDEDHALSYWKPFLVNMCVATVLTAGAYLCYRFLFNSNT

`O=C(c1ccccc1)C(Cc1ccc(C(F)(F)P(=O)(O)O)c(Br)c1)c1ccccc1` (configuration not stated) was tested, and the pEC50 [1] was 5.92.

Work on `CC(C)(C)NC(=O)[C@H]1CC[C@H]2[C@@H]3CC[C@H]4NC(=O)C=C[C@]4(C)[C@H]3CC[C@]12C` [FINASTERIDE] yielded a pIC50 [2] of 7.52, a pIC50 [3] of 7.24 and a pIC50 [4] of 6.19. For the same compound, the pIC50 [5] was 7.49, the pIC50 [6] was 6.33 to 6.82 and the pIC50 [7] was 7.95 to 9.74.
